Results published in ChEMBL document CHEMBL4673355, “Thiacalixarene based quaternary ammonium salts as promising antibacterial agents” (Bioorg Med Chem, 2021).

Columns and labels:
Assay type in all cases: functional
Staphylococcus aureus [1] = assay: Antibacterial activity against Staphylococcus aureus ATCC 6538 incubated for 24 hrs by CLSI broth microdilution method
Escherichia coli [2] = assay: Antibacterial activity against Escherichia coli ATCC 25922 assessed as reduction in bacterial growth incubated for 24 hrs by CLSI broth microdilution method; details: Escherichia coli, ATCC 25922, 24 h, read-out: MIC
Klebsiella pneumoniae [3] = assay: Antibacterial activity against Klebsiella pneumoniae ATCC 10031 assessed as reduction in bacterial growth incubated for 24 hrs by CLSI broth microdilution method
Pseudomonas aeruginosa [4] = assay: Antibacterial activity against Pseudomonas aeruginosa ATCC 9027 assessed as reduction in bacterial growth incubated for 24 hrs by CLSI broth microdilution method
Proteus sp. = assay: Antibacterial activity against […] resistant Proteus sp. clinical isolate 17 assessed as reduction in bacterial growth incubated for 24 hrs by CLSI broth microdilution method; details: Proteus sp. (in: enterobacteria)
Klebsiella sp. [5] = assay: Antibacterial activity against […] resistant Klebsiella sp. clinical isolate 12 assessed as reduction in bacterial growth incubated for 24 hrs by CLSI broth microdilution method
Klebsiella sp. [6] = assay: Antibacterial activity against […] resistant Klebsiella sp. clinical isolate 11 assessed as reduction in bacterial growth incubated for 24 hrs by CLSI broth microdilution method
Pseudomonas = assay: Antibacterial activity against methicillin- resistant Pseudomonas spp. clinical isolate 6 assessed as reduction in bacterial growth incubated for 24 hrs by CLSI broth microdilution method
Acinetobacter [7] = assay: Antibacterial activity against […] resistant Acinetobacter spp. clinical isolate 5 assessed as reduction in bacterial growth incubated for 24 hrs by CLSI broth microdilution method
Acinetobacter [8] = assay: Antibacterial activity against […] resistant Acinetobacter spp. clinical isolate 3 assessed as reduction in bacterial growth incubated for 24 hrs by CLSI broth microdilution method
Acinetobacter [9] = assay: Antibacterial activity against […] resistant Acinetobacter spp. clinical isolate 1 assessed as reduction in bacterial growth incubated for 24 hrs by CLSI broth microdilution method
[10] = Antibacterial activity against […] resistant Moraxella sp.829 clinical isolate assessed as reduction in bacterial growth incubated for 24 hrs by CLSI broth microdilution method; details: Moraxella catarrhalis
[11] = Antibacterial activity against […] resistant Moraxella sp.765 clinical isolate assessed as reduction in bacterial growth incubated for 24 hrs by CLSI broth microdilution method; details: Moraxella catarrhalis
[12] = Antibacterial activity against […] resistant Moraxella sp.764 clinical isolate assessed as reduction in bacterial growth incubated for 24 hrs by CLSI broth microdilution method; details: Moraxella catarrhalis
Staphylococcus aureus [13] = assay: Antibacterial activity against methicillin- resistant Staphylococcus aureus 25 clinical isolate assessed as reduction in bacterial growth incubated for 24 hrs by CLSI broth microdilution method
Staphylococcus aureus [14] = assay: Antibacterial activity against methicillin- resistant Staphylococcus aureus 2020 clinical isolate assessed as reduction in bacterial growth incubated for 24 hrs by CLSI broth microdilution method
[15] = tested on: Staphylococcus intermedius; assay: Antibacterial activity against methicillin- resistant Staphylococcus intermedius 1143 clinical isolate assessed as reduction in bacterial growth incubated for 24 hrs by CLSI broth microdilution method
Staphylococcus aureus [16] = assay: Antibacterial activity against methicillin- resistant Staphylococcus aureus 983 clinical isolate assessed as reduction in bacterial growth incubated for 24 hrs by CLSI broth microdilution method
Staphylococcus aureus [17] = assay: Antibacterial activity against methicillin- resistant Staphylococcus aureus 967 clinical isolate assessed as reduction in bacterial growth incubated for 24 hrs by CLSI broth microdilution method
[18] = tested on: Staphylococcus haemolyticus; assay: Antibacterial activity against methicillin- resistant Staphylococcus haemolyticus 837 assessed as reduction in bacterial growth incubated for 24 hrs by CLSI broth microdilution method
Pseudomonas aeruginosa [19] = assay: Bactericidal activity against Pseudomonas aeruginosa ATCC 27853 assessed as reduction in bacterial growth incubated for 24 hrs followed by replating on MH broth and further incubated for 24 hrs by CLSI broth microdilution method
Klebsiella pneumoniae [20] = assay: Bactericidal activity against Klebsiella pneumoniae ATCC 1813 assessed as reduction in bacterial growth incubated for 24 hrs followed by replating on MH broth and further incubated for 24 hrs by CLSI broth microdilution method
Escherichia coli [21] = assay: Bactericidal activity against Escherichia coli ATCC 25922 assessed as reduction in bacterial growth incubated for 24 hrs followed by replating on MH broth and further incubated for 24 hrs by CLSI broth microdilution method
Bacillus subtilis [22] = assay: Bactericidal activity against Bacillus subtilis 168 assessed as reduction in bacterial growth incubated for 24 hrs followed by replating on MH broth and further incubated for 24 hrs by CLSI broth microdilution method; details: Bacillus subtilis, 168, 24 h
[23] = tested on: Staphylococcus epidermidis; assay: Bactericidal activity against Staphylococcus epidermidis assessed as reduction in bacterial growth incubated for 24 hrs followed by replating on MH broth and further incubated for 24 hrs by CLSI broth microdilution method; details: Staphylococcus epidermidis, read-out: MBC
Staphylococcus aureus [24] = assay: Bactericidal activity against Staphylococcus aureus ATCC 29213 assessed as reduction in bacterial growth incubated for 24 hrs followed by replating on MH broth and further incubated for 24 hrs by CLSI broth microdilution method; details: Staphylococcus aureus, ATCC 29213; time 48 hrs; read-out: MBC
Bacillus subtilis [25] = assay: Antibacterial activity against Bacillus subtilis 168 assessed as reduction in bacterial growth incubated for 24 hrs by CLSI broth microdilution method
Staphylococcus aureus [26] = assay: Antibacterial activity against Staphylococcus aureus ATCC 29213 by CLSI broth microdilution method
Staphylococcus aureus [27] = assay: Bactericidal activity against Staphylococcus aureus ATCC 29213
Escherichia coli [28] = assay: Bactericidal activity against Escherichia coli ATCC 25922

CCCCCCCCOc1c2cc(C[N+](C)(C)CCN)cc1Cc1cc(C[N+](C)(C)CCN)cc(c1OCCCCCCCC)Cc1cc(C[N+](C)(C)CCN)cc(c1OCCCCCCCC)Cc1cc(C[N+](C)(C)CCN)cc(c1OCCCCCCCC)C2.[Cl-].[Cl-].[Cl-].[Cl-]
MIC (Staphylococcus aureus [1]): > 1000 µg/mL | MIC (Escherichia coli [2]): > 1000 µg/mL | MIC (Klebsiella pneumoniae [3]): > 1000 µg/mL | MIC (Pseudomonas aeruginosa [4]): > 1000 µg/mL

CCCCCCCC[N+](C)(C)CCCNC(=O)COc1c2cc(C(C)(C)C)cc1Sc1cc(C(C)(C)C)cc(c1OCC(=O)NCCC[N+](C)(C)CCCCCCCC)Sc1cc(C(C)(C)C)cc(c1OCC(=O)NCCC[N+](C)(C)CCCCCCCC)Sc1cc(C(C)(C)C)cc(c1OCC(=O)NCCC[N+](C)(C)CCCCCCCC)S2.[Cl-].[Cl-].[Cl-].[Cl-]
MIC (Proteus sp.): 64 µg/mL | MIC (Klebsiella sp. [5]): 16 µg/mL | MIC (Klebsiella sp. [6]): 16 µg/mL | MIC (Pseudomonas): 16 µg/mL | MIC (Acinetobacter [7]): 16 µg/mL | MIC (Acinetobacter [8]): 16 µg/mL | MIC (Acinetobacter [9]): 8 µg/mL | MIC [10]: 16 µg/mL | MIC [11]: 16 µg/mL | MIC [12]: 16 µg/mL | MIC (Staphylococcus aureus [13]): 4 µg/mL | MIC (Staphylococcus aureus [14]): 16 µg/mL | MIC [15]: 2 µg/mL | MIC (Staphylococcus aureus [16]): 16 µg/mL | MIC (Staphylococcus aureus [17]): 16 µg/mL | MIC [18]: 16 µg/mL | MBC (Pseudomonas aeruginosa [19]): 32 µg/mL | MBC (Klebsiella pneumoniae [20]): 32 µg/mL | MBC (Escherichia coli [21]): 16 µg/mL | MBC (Bacillus subtilis [22]): 16 µg/mL | MBC [23]: 2 µg/mL | MBC (Staphylococcus aureus [24]): 1 µg/mL | MIC (Bacillus subtilis [25]; 24 h): 4 µg/mL | MIC (Bacillus subtilis [25]; Bacillus subtilis, 168, 24 h, read-out: MIC): 2 µg/mL

CCCOc1c2cc(C[n+]3ccn(C)c3)cc1Cc1cc(C[n+]3ccn(C)c3)cc(c1OCCC)Cc1cc(C[n+]3ccn(C)c3)cc(c1OCCC)Cc1cc(C[n+]3ccn(C)c3)cc(c1OCCC)C2.[Cl-].[Cl-].[Cl-].[Cl-]
MIC (Staphylococcus aureus [1]): ≤ 10 µg/mL | MIC (Escherichia coli [2]): ≤ 10 µg/mL | MIC (Klebsiella pneumoniae [3]): ≤ 10 µg/mL | MIC (Pseudomonas aeruginosa [4]): 50 µg/mL

CCCOc1c2cc(C[N+](C)(C)C)cc1Cc1cc(C[N+](C)(C)C)cc(c1OCCC)Cc1cc(C[N+](C)(C)C)cc(c1OCCC)Cc1cc(C[N+](C)(C)C)cc(c1OCCC)C2.[Cl-].[Cl-].[Cl-].[Cl-]
MIC (Staphylococcus aureus [26]): 16 µg/mL | MBC (Staphylococcus aureus [27]): 16 µg/mL | MBC (Escherichia coli [28]): 16 µg/mL | MIC (Escherichia coli [2]): 16 µg/mL

CCCOc1c2cc(C[N+](C)(C)CCN)cc1Cc1cc(C[N+](C)(C)CCN)cc(c1OCCC)Cc1cc(C[N+](C)(C)CCN)cc(c1OCCC)Cc1cc(C[N+](C)(C)CCN)cc(c1OCCC)C2.[Cl-].[Cl-].[Cl-].[Cl-]
MIC (Staphylococcus aureus [1]): ≤ 10 µg/mL | MIC (Escherichia coli [2]): 500 µg/mL | MIC (Klebsiella pneumoniae [3]): 500 µg/mL | MIC (Pseudomonas aeruginosa [4]): 50 µg/mL

CCCOc1c2cc(C[N+](C)(C)CCO)cc1Cc1cc(C[N+](C)(C)CCO)cc(c1OCCC)Cc1cc(C[N+](C)(C)CCO)cc(c1OCCC)Cc1cc(C[N+](C)(C)CCO)cc(c1OCCC)C2.[Cl-].[Cl-].[Cl-].[Cl-]
MIC (Staphylococcus aureus [26]): 16 µg/mL | MBC (Staphylococcus aureus [27]): 16 µg/mL | MBC (Escherichia coli [28]): 256 µg/mL | MIC (Staphylococcus aureus [1]): ≤ 10 µg/mL | MIC (Escherichia coli [2]): 32 µg/mL | MIC (Klebsiella pneumoniae [3]): 100 µg/mL | MIC (Pseudomonas aeruginosa [4]): 1000 µg/mL
